Test results reported in US10882826B2, “Quinolinone or quinazolinone comprising antibiofilm compositions, compounds and methods and uses relating thereto” (University College Cork—National University of Ireland, priority 2015, dated 2021).

What was measured:
[1] = system: DU145; assay: LDH release cytotoxicity, DU145; type: cell-based; details: DU145 cell line; percentage of 0.1% Triton
Protocol: (§1) Lactate dehydrogenase (LDH) release from IB3 lung epithelial cells was assayed as a measure of cytotoxicity using an LDH colorimetric kit (Roche) according to manufacturers' instructions. Briefly, IB3-1 cells were seeded onto 96 well plates and treated with methanol (control) and test compounds (100 μM). Following 16 hr incubation at 37° C. and 5% CO2, supernatants were removed and added to catalyst reaction mixture in a fresh plate and further incubated at 37° C. and 5% CO2 for 30 mins to allow for colour development. After this period, the plate was analysed on an ELISA plate reader at OD490 nm. Cytotoxicity was expressed as a percentage of cells treated with 0.1% (v/v) Triton (100% cytotoxicity). The results are detailed in table 3:
(§2) The above experiments were repeated, testing some compounds against further cell lines (A549, DU145 and HeLa).

[2] = system: Pseudomonus aeruginosa; assay: Virulence of Pseudomonas aeruginosa (summary statement); type: cell-based; details: unlike HHQ and PQS
Protocol: The virulence of compounds B1, B2, C2, C3, C4, C5, C6, C8 and C11 towards P. aeruginosa was assessed using the following method:
P. aeruginosa strains were cultured as described above for 24 hr, with the addition of test compounds (10 μM). Cultures were centrifuged at 4000 rpm for 10 minutes and the cell free supernatant (5 ml) removed. Chloroform (3 ml) was added, and mixed by vortex. After centrifugation at 4000 rpm for 5 mins, the lower aqueous phase was transferred to 0.2 M HCl (2 ml). Samples were mixed by vortex and centrifuged at 4000 rpm for 5 mins to separate the phases. An aliquot of the top phase (1 ml) was removed and spectrophotmetrically analysed at OD570 nm. Phenazine production was calculated using the following formula: OD570 nm×2×17.072 and the units expressed in μg/ml. […]

[3] = system: C. albicans strain SC5314 biofilm; assay: XTT metabolic assay of C. albicans biofilm; type: cell-based, Candida albicans; details: for XTT result, Mean (MeOH control = 1) / Absorbance at 492 nm, Mean (XTT): C. albicans biofilm; for Absorbance at 492 nm, Mean (XTT): test compound 100 μM, 24 hr, MeOH control 0.647, untreated 0.851; for effectiveness against fungal biofilms formed by Candida albicans (in words): summary statement
Protocol: C. albicans strain SC5314 was sub-cultured from 15% (v/v) glycerol stocks at −80° C. onto Yeast Peptone Dextrose (YPD) medium [1% (w/v) yeast extract, 2% (w/v) peptone and 2% (w/v) dextrose] and incubated at 30° C. overnight.
The test compounds in desiccated form were re-suspended in Methanol to create a 10 mM stock. […]
The ability of some of the compounds detailed in example 1 to disrupt Candida albicans was tested using Confocal Scanning Laser Microscopy and an XTT Metabolic Assay. The XTT assay is a commonly used quantitative method assessing Candida biofilm mass and growth often in response to novel drug therapies.
C. albicans biofilm formation was carried out in 96 well plates by a method of the prior art. Briefly, C. albicans was inoculated into Yeast Nitrogen Base [10% (w/v)] and glucose/maltose [10% (w/v)] and incubated overnight at 30° C. Seeding densities for all subsequent experiments (N=3) were OD600=0.05. Cells were grown in Yeast Nitrogen Base supplemented with 1 M Phosphate buffer and acetyl-D-glucosamine (YNB-NP) along with appropriate volumes of test compound to provide the desired concentration. Cells were cultured in 96 well plates for 1 hr at 37° C. to facilitate yeast attachment. After this incubation, the supernatants were aspirated, the wells washed twice with YNB-NP media, and fresh media with the same concentration of test compound added to the appropriate wells. The plate was incubated for 24 hr at 37° C. The next day, the cultures were aspirated and the wells washed once with YNB-NP media.
C. albicans biofilm quantification was carried out in 96 well plates using a semi-quantitative Tetrazolium salt, 2,3-bis-(2-methoxy-4-nitro-5-sulfophenyl)-2H tetrazolium-5-carboxanilide inner salt (XTT) reduction assay (Hawser, Tunney et al, Antimicrob Agents Chemother. 2004 May; 48(5):1879-81). XTT (0.01 g) was dissolved in sterile water (20 ml) and filter sterilized. 10 μl of Menadione dissolved in Acetone was added to the XTT solution, just before use. The XTT-Menadione Solution (100 μl) was added to each well. The plate was incubated in the dark at 37° C. for up to 2 hr to allow for colour development. The OD492 nm was recorded for each well. Experiments were repeated at least three times, with at least eight technical replicates.
Experiments were first carried out using the test compound at concentration of 100 μM.

[4] = system: pqsA-lacZ promoter fusion; assay: Promoter fusion based expression analysis (pqsA-lacZ, Miller units); type: cell-based, P. aeruginosa; details: PAO1 pqsA-pqsA-lacZ strain, 100 μM, overnight; methanol control 12287
Protocol: (§3) P. aeruginosa strains, PAO1 and pqsA mutant, containing the chromosomally inserted pqsA-lacZ promoter fusion on plasmid pUC18-mini-Tn7, were sub-cultured from glycerol stocks onto LB agar plates, supplemented with Carbenicillin (200 μg/ml) and X-gal (40 μg/ml), and incubated at 37° C. overnight. Single colonies were inoculated into LB broth (20 ml), supplemented with Carbenicillin (200 μg/ml), and incubated at 37° C., shaking at 180 rpm overnight. For subsequent experiments, the OD600 nm was recorded and a starting OD600 nm of 0.02 was inoculated into fresh LB broth, supplemented with Carbenicillin (200 μg/ml) and incubated at 37° C., shaking at 180 rpm.
Promoter fusion analyses were performed in a 96-well format. Briefly, overnight cultures of wild-type PAO1 pqsA-lacZ (pLP0996) and mutant strain PAO1 pqsA^− pqsA-LacZ were diluted to OD600 nm=0.02 in LB. Test compounds at 100 μM final concentration were added, mixed, aliquoted into 96 well plates and incubated overnight at 37° C. with shaking. The next day, OD600 nm values were recorded in a plate reader. Aliquots of cells (0.02 ml) were permeabilised [100 mM dibasic sodium phosphate (Na2HPO4), 20 mM KCl, 2 mM MgSO4, 0.8 mg/mL CTAB (hexadecyltrimethylammonium bromide), 0.4 mg/mL sodium deoxycholate, 5.4 μL/mL beta-mercaptoethanol] and added to substrate solution [60 mM Na2HPO4, 40 mM NaH2PO4, 1 mg/mL o-nitrophenyl-β-D-Galactoside (ONPG), 2.7 μL/mL β-mercaptoethanol]. The kinetics of colour development was monitored and the reactions were stopped using 1M NaCO3. OD420 nm were recorded as above. Miller units were calculated using the following equation; 1000×[OD420 nm/(OD600 nm)×0.02 ml×reaction time (mins)].
(§4) The phenazine production levels and Miller units in the PAO1 pqsA-pqsA-lacZ strain are detailed in table 5.
(§5) The virulence of compounds B2, C13 and C15 towards P. aeruginosa was assessed using an analogous method.

[5] = system: IB3 lung epithelial cells; assay: LDH release cytotoxicity, IB3-1 cells; type: cell-based; details: 100 μM, 16 hr, percentage of 0.1% Triton (100% cytotoxicity), MeOH 3.844
Protocol: as §1, with “cytotoxicity).” for “cytotoxicity). The results are detailed in table 3:”

[6] = system: P. aeruginosa PAO1 pqsA-pqsA-lacZ strain; assay: Phenazine extraction (phenazine production); type: cell-based; details: PAO1 pqsA-pqsA-lacZ strain, test compounds 10 μM, 24 hr; methanol control 0.080
Protocol: as §3
P. aeruginosa strains were cultured as described above for 24 hr, with the addition of test compounds (10 μM). Cultures were centrifuged at 4000 rpm for 10 minutes and the cell free supernatant (5 ml) removed. Chloroform (3 ml) was added, and mixed by vortex. After centrifugation at 4000 rpm for 5 mins, the lower aqueous phase was transferred to 0.2 M HCl (2 ml). Samples were mixed by vortex and centrifuged at 4000 rpm for 5 mins to separate the phases. An aliquot of the top phase (1 ml) was removed and spectrophotmetrically analysed at OD570 nm. Phenazine production was calculated using the following formula: OD570 nm×2×17.072 and the units expressed in μg/ml.
as §4, §5

[7] = system: mammalian cells; assay: Cytotoxicity towards mammalian cells (summary statement); type: cell-based
Protocol: as §1, §2

[8] = system: A. fumigatus CFBRC2 biofilm; assay: A. fumigatus biofilm assay, clinical source CFBRC2; type: cell-based, Aspergillus fumigatus; details: biofilm from clinical source CFBRC2
Protocol: (§6) A. fumigatus Af293 was grown on SDA in 100 ml cell culture flasks at 37° C. for 3-4 days. Conidia were harvested by flooding the surface of the agar plates with 5 ml PBS (Oxoid) containing 0.025% (v/v) Tween 20 and gently moving the liquid over the surface of the fungal lawn. The conidial suspension was transferred into a 25 ml sterile container and conidia were counted using a Neubauer haemocytometer and light microscope. Conidia were adjusted to the required concentration in RPMI 1640 (Sigma) buffered to pH 7.0 with 0.165 M MOPS immediately prior to biofilm formation analysis.
(§7) To assess biofilm formation, counted A. fumigatus spores (1×10^5) in MOPS buffered RPMI 1640 were inoculated into 24- and 96-well plates and grown overnight in the presence of 100 μM HHQ, PQS and the test compounds. After 24 hrs, the media was removed and the biofilm washed twice with distilled water after which 0.1% crystal violet (CV) was added to each well and allowed to stand for 1 hr at room temperature. The crystal violet was removed and all wells washed in a water bath by inversion. Ethanol was added to each well to solubilise biofilms after which samples were read on a spectrophotometer at Abs595 nm.
(§8) The above experiments were carried out using biofilms grown from laboratory sources of A. fumigatus. The experiments were repeated to test some compounds against biofilms grown from three different clinical sources of A. fumigatus (CFBRC1, CFBRC2 and CFBRC3. The results are shown in table 8: […]

[9] = system: A. fumigatus CFBRC3 biofilm; assay: A. fumigatus biofilm assay, clinical source CFBRC3; type: cell-based, Aspergillus fumigatus; details: biofilm from clinical source CFBRC3
Protocol: as §6, §7, §8

[10] = system: A. fumigatus Af293 biofilm; assay: A. fumigatus biofilm assay (crystal violet); type: cell-based, Aspergillus fumigatus
Protocol: A. fumigatus Af293 was routinely grown on Sabouraud dextrose agar (SDA) in 100 ml cell culture flasks at 37° C. for 3-4 days until a lawn of fungal growth was observed.
as §6, §7

[11] = system: A. fumigatus CFBRC1 biofilm; assay: A. fumigatus biofilm assay, clinical source CFBRC1; type: cell-based, Aspergillus fumigatus; details: biofilm from clinical source CFBRC1
Protocol: as §6, §7, §8

SMILES	Cytotoxicity, Mean (LDH release) [1]	effect on virulence of Pseudomonus aeruginosa (in words) [2]	XTT result, Mean (MeOH control = 1) ([3]; 10 μM)	XTT result, Mean (MeOH control = 1) ([3]; 50 μM)	XTT result, Mean (MeOH control = 1) ([3]; 100 μM)	Absorbance at 492 nm, Mean (XTT) [3]	effectiveness against fungal biofilms formed by Candida albicans (in words) [3]	Miller Units, Mean [4]	% Cytotoxicity, Mean (LDH release) [5]	Phenazine, Mean [6]	cytotoxicity towards mammalian cells (in words) [7]	Relative absorbance compared to MeOH (=1), Mean [8]	Relative absorbance compared to MeOH (=1), Mean [9]	Relative absorbance at 595 nm compared to methanol control, Mean ([10]; A. fumigatus Af293 biofilm, 100 μM, 24 hrs, crystal violet)	effectiveness against fungal biofilms formed by Aspergillus fumigatus (in words) ([10]; summary statement)	Relative absorbance compared to MeOH (=1), Mean [11]
CCCCCCCc1cc(=O)c2cc(C)ccc2[nH]1 [Compound C3]	32.42%	do not increase the virulence	0.71	0.57	0.51	0.307	effective	18350 Miller Units	23.77%	0.774 µg/mL						
CCCCCCCn1c(=O)cc(O)c2ccccc21 [Compound C6]		do not increase the virulence				0.336	effective	16678 Miller Units	19.70%	0.011 µg/mL	reduced cytotoxicity					
CCCCCCCCCc1cc(=O)c2ccccc2[nH]1 [Compound C10]	31.7%	do not increase the virulence	0.58	0.50	0.53	0.419					reduced cytotoxicity	0.567	0.670	0.24	effective	0.772
